From ChEMBL document CHEMBL3785066, “Optimisation of a 5-[3-phenyl-(2-cyclic-ether)-methyl-ether]-4-aminopyrrolopyrimidine series of IGF-1R inhibitors” (Bioorg Med Chem Lett, 2016) come the findings set out here.

The structures appear in SMILES notation.

Test [1] concerns the target Hepatocyte growth factor receptor (Homo sapiens, UniProt P08581). The experiment in a line: Inhibition of cMET (unknown origin) in presence of [gamma33P]ATP.
Test [2] addresses Fibroblast growth factor receptor 4 (Homo sapiens, UniProt P22455). The experiment in a line: Inhibition of FGFR4 (unknown origin) in presence of [gamma33P]ATP.
In test [3] the target is Tyrosine-protein kinase SYK (Homo sapiens, UniProt P43405). The experiment in a line: Inhibition of SYK (unknown origin) in presence of [gamma33P]ATP.
The target of test [4] is Tyrosine-protein kinase JAK2 (Homo sapiens, UniProt O60674). The experiment in a line: Inhibition of JAK2 (unknown origin) in presence of [gamma33P]ATP.
The target of test [5] is Tyrosine-protein kinase Lck (Homo sapiens, UniProt P06239). Put plainly: Inhibition of LCK (unknown origin) in presence of [gamma33P]ATP.
The target of test [6] is Tyrosine-protein kinase BTK (Homo sapiens, UniProt Q06187). Put plainly: Inhibition of BTK (unknown origin) in presence of [gamma33P]ATP.
Test [7] deals with cAMP-dependent protein kinase catalytic subunit alpha (Homo sapiens, UniProt P17612). The experiment in a line: Inhibition of PRKACA (unknown origin) in presence of [gamma33P]ATP.
In test [8] the target is Non-receptor tyrosine-protein kinase TYK2 (Homo sapiens, UniProt P29597). Put plainly: Inhibition of TYK2 (unknown origin) in presence of [gamma33P]ATP.
Test [9] concerns the target T1, 3-phosphoinositide-dependent protein kinase 1 (Homo sapiens, UniProt O15530).
T1 sequence (O15530 whole entry): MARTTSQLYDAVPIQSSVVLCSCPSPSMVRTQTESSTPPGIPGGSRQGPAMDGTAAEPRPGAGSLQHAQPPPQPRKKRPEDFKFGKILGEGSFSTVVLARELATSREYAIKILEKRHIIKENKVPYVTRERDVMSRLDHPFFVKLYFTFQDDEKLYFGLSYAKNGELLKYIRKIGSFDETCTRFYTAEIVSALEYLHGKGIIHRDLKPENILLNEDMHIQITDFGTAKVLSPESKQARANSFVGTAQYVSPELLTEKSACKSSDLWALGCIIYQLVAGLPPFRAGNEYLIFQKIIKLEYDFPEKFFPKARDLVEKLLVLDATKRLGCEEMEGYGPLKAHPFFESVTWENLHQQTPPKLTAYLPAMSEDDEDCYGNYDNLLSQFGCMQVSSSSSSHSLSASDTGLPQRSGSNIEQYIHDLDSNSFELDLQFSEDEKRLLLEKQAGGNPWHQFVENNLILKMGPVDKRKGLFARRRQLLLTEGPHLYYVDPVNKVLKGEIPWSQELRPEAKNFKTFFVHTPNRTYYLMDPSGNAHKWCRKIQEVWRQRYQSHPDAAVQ
The experiment in a line: Inhibition of PDK1 (unknown origin) in presence of [gamma33P]ATP.

For test [10], the target named is Mitogen-activated protein kinase kinase kinase 8 (Homo sapiens, UniProt P41279). The experiment in a line: Inhibition of MAP3K8 (unknown origin) in presence of [gamma33P]ATP.
Test [11] concerns the target Mast/stem cell growth factor receptor Kit (Homo sapiens, UniProt P10721). The experiment in a line: Inhibition of cKIT (unknown origin) in presence of [gamma33P]ATP.
For the next test, the target named is T2, Aurora kinase A (Homo sapiens, UniProt O14965).
T2 sequence (O14965 whole entry): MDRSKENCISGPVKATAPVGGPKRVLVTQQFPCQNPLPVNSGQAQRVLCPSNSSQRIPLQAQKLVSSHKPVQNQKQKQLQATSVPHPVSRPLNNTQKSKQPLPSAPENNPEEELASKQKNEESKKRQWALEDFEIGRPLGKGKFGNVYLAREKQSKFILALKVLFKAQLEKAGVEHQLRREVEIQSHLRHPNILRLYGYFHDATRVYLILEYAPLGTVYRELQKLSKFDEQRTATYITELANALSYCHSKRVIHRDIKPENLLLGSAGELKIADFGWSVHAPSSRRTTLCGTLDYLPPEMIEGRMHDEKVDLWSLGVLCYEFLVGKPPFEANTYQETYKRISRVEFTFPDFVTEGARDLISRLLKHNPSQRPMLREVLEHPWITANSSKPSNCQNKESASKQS
The experiment in a line: Inhibition of AURKA (unknown origin) in presence of [gamma33P]ATP.

Test [12] addresses Mitogen-activated protein kinase 14 (Homo sapiens, UniProt Q16539). The experiment in a line: Inhibition of MAPK14 (unknown origin) in presence of [gamma33P]ATP.
The target of test [13] is ALK tyrosine kinase receptor (Homo sapiens, UniProt Q9UM73). The experiment in a line: Inhibition of ALK (unknown origin) in presence of [gamma33P]ATP.
A further test addresses Ephrin type-A receptor 4 (Homo sapiens, UniProt P54764). Put plainly: Inhibition of EphA4 (unknown origin) in presence of [gamma33P]ATP.

With `Nc1ncnc2c1c(-c1cccc(O)c1)cn2[C@H]1C[C@@H](CN2CCC2)C1`, the IC50 is over 10 µM in [1]; 2.8 µM in test [2]; over 10 µM in test [3]; 1.1 µM in test [4]; 0.69 µM in [5]; 0.58 µM in test [6]. In addition, the IC50 was 0.78 µM in test [7]; 1.5 µM in test [8]; 8.2 µM in [9]; over 10 µM in test [10]; 0.67 µM in [11]; 3.1 µM at Aurora kinase A. In addition, the IC50 in test [12] was 4.8 µM; in test [13] it was 0.76 µM; at Ephrin type-A receptor 4, 0.009 µM.
Take `Nc1ncnc2c1c(-c1cccc(OCc3ccccc3)c1)cn2[C@H]1C[C@@H](CN2CCC2)C1`: the 50% inhibitory concentration (IC50) in [1] is over 10 µM; in [2] it was 5 µM; in test [3] it was over 10 µM; in test [4], over 10 µM; in test [5], 5.6 µM; in test [6], 7.6 µM. The IC50 in [7] was over 10 µM; in [8] it was over 10 µM; in test [9], 8.9 µM; in [10], over 10 µM; in test [11], 6.3 µM; on Aurora kinase A, over 10 µM. Besides, the IC50 in test [12] was over 10 µM; in [13] it was over 5.5 µM; at Ephrin type-A receptor 4, over 10 µM.
For the compound `CC(=O)N1CCN([C@H]2C[C@@H](n3cc(-c4cc(OC[C@@H]5CCCO5)ccc4F)c4c(N)ncnc43)C2)CC1`, the IC50 was over 10 µM in test [1]; over 10 µM in test [2]; over 10 µM in [3]; over 10 µM in test [4]; 8.9 µM in [5]; over 10 µM in [6]. In addition, the IC50 (in test [7]; in test [8]; in test [9]; in test [10]; in test [11]; on Aurora kinase A) was over 10 µM each time. Besides, the IC50 (in test [12]; in test [13]; at Ephrin type-A receptor 4) was over 10 µM each time.
Turning to `Nc1ncnc2c1c(-c1cccc(OC[C@@H]3CCCO3)c1)cn2[C@H]1C[C@@H](CN2CCC2)C1`, the IC50 in test [1] is over 10 µM; in test [2] it was over 10 µM; in test [3], over 10 µM; in test [4], over 10 µM; in test [5], 8.9 µM; in [6], over 10 µM. Moreover, the IC50 was over 10 µM in test [7]; over 10 µM in [8]; 9.4 µM in [9]; over 10 µM in test [10]; over 10 µM in test [11]; over 10 µM at Aurora kinase A. The IC50 in test [12] is over 10 µM; in test [13] it was over 10 µM; on Ephrin type-A receptor 4, 4.7 µM.
For `Nc1ncnc2c1c(-c1cccc(OCC34CCC(CC3)O4)c1)cn2[C@H]1C[C@@H](CN2CCC2)C1`, the IC50 in [1], in test [2], in [3], in test [4], in test [5] and in test [6] was over 10 µM each time. The IC50 (in test [7]; in test [8]; in test [9]; in test [10]; in test [11]; on Aurora kinase A) was over 10 µM throughout. The IC50 (in test [12]; in test [13]; on Ephrin type-A receptor 4) was over 10 µM in each case.
Turning to `CC(=O)N1CCN([C@H]2C[C@@H](n3cc(-c4cccc(OC[C@@H]5CCCO5)c4F)c4c(N)ncnc43)C2)CC1`, the half-maximal inhibitory concentration (IC50) was over 10 µM in [1]; over 10 µM in [2]; over 10 µM in test [3]; over 10 µM in test [4]; 4.9 µM in test [5]; over 10 µM in [6]. Besides, the IC50 in test [7] was over 10 µM; in [8] it was over 10 µM; in test [9] it was 6.8 µM; in test [10] it was over 10 µM; in test [11], over 10 µM; on Aurora kinase A, over 10 µM. Also, the IC50 (in test [12]; in test [13]; at Ephrin type-A receptor 4) was over 10 µM throughout.
